{"source": "patent US10106539B2", "about": "“Spiro-indolines for the treatment and prophylaxis of respiratory syncytial virus infection (RSV)” (REVIRAL LIMITED, priority 2014, dated 2018)", "key": {"[1]": {"assay": "Plasma protein binding (equilibrium dialysis), rat", "assay_type": "in vitro ADME", "settings": "plasma (100%)", "experimental": "(§1) Protein Binding Determination: Experimental Procedure\n(§2) Solutions of test compound (5 μM, 0.5% final DMSO concentration) are prepared in buffer (pH 7.4) and 100% species-specific plasma. The experiment is performed using equilibrium dialysis with the two compartments separated by a semi-permeable membrane. The buffer solution is added to one side of the membrane and the plasma solution to the other side. After equilibration, samples are taken from both sides of the membrane. Standards are prepared in plasma and buffer and are incubated at 37° C.\n(§3) Test compound incubations are performed in duplicate. A control compound is included in each experiment.\n(§4) The solutions for each batch of compounds are combined into two groups (protein-free and protein-containing), then cassette analysed by LC-MS/MS using two sets of calibration standards for protein-free (7 points) and protein-containing solutions (6 points)."}, "RSV-A5 (6470)": {"tested_on": "RSV-A5 (6470)", "assay": "RSV plaque reduction assay, RSV-A5 (6470), Vero cells", "assay_type": "cell-based", "settings": "human respiratory syncytial virus, n = 1", "experimental": "(§5) Plaque Reduction Assay: […] After an overnight incubation at 37° C. in a humidified 5% CO2 atmosphere, the monolayer of cells should be approximately 90% confluent. Antiviral compounds were titrated in pre-warmed Serum Free (SF) Optimem in a U-bottom 96 well plate. […] Media was then removed from cells and replaced with PBS (100 μl/well). RSV stock was thawed and diluted in SF Optimem media to 4000 PFU/mLl. An equal volume of virus was added to compounds on the titration plate. PBS was removed from cells which were then inoculated with the virus/compound solution (50 μL/well). Cells were incubated for 2 h in a 37° C.+5% CO2 humidified incubator to allow infection. […] Immunostaining Procedure: Media was removed from cells and the monolayer washed with PBS. Cells were fixed with ice cold 80% Acetone in PBS (100 μl/well) for 20 mins at −20° C. […] Blocking solution was removed and plates washed once with PBS-T. Primary antibody in blocking solution was added to plates (50 μl/well) and incubated for 1 h at 37° C. Plates were then washed 3 times with PBS-T. Secondary antibody in blocking solution was added to plates (50 μL/well) and incubated for 1 h at 37° C. in the dark. […] Data Analysis: Images obtained were saved and plaque numbers counted with the aid of computer imaging software. […]"}, "[2]": {"assay": "Plasma protein binding (equilibrium dialysis), dog", "assay_type": "in vitro ADME", "settings": "plasma (100%)", "experimental": "as §1, §2, §3, §4"}, "human P-gp (MDR1)": {"tested_on": "human P-gp (MDR1)", "assay": "MDR1-MDCK permeability", "assay_type": "in vitro ADME", "settings": "dog", "experimental": "MDR1-MDCK Permeability: Experimental Procedure\nMDR1-MDCK cells obtained from the NIH (Rockville, Md., USA) are used between passage numbers 6-30. Cells are seeded onto Millipore Multiscreen Transwell plates at 3.4×10^5 cells/cm2. The cells are cultured in DMEM and media is changed on day 3. On day 4 the permeability study is performed. Cell culture and assay incubations are carried out at 37° C. in an atmosphere of 5% CO2 with a relative humidity of 95%. On the day of the assay, the monolayers are prepared by rinsing both basolateral and apical surfaces twice with Hanks Balanced Salt Solution (HBSS) at the desired pH warmed to 37° C. Cells are then incubated with HBSS at the desired pH in both apical and basolateral compartments for 40 min to stabilise physiological parameters.\nThe dosing solutions are prepared by diluting test compound with assay buffer to give a final test compound concentration of 10 μM (final DMSO concentration of 1% v/v). The fluorescent integrity marker lucifer yellow is also included in the dosing solution. Analytical standards are prepared from test compound DMSO dilutions and transferred to buffer, maintaining a 1% v/v DMSO concentration.\nFor assessment of A-B permeability, HBSS is removed from the apical compartment and replaced with test compound dosing solution. The apical compartment insert is then placed into a companion plate containing fresh buffer (containing 1% v/v DMSO). For assessment of B-A permeability, HBSS is removed from the companion plate and replaced with test compound dosing solution. Fresh buffer (containing 1% v/v DMSO) is added to the apical compartment insert, which is then placed into the companion plate.\nAt 60 min the apical compartment inserts and the companion plates are separated and apical and basolateral samples diluted for analysis.\nTest compound permeability is assessed in duplicate. Compounds of known permeability characteristics are run as controls on each assay plate.\nTest and control compounds are quantified by LC-MS/MS cassette analysis using an 8-point calibration with appropriate dilution of the samples. The starting concentration (C0) is determined from the dosing solution and the experimental recovery calculated from C0 and both apical and basolateral compartment concentrations.\nThe integrity of the monolayer throughout the experiment is checked by monitoring lucifer yellow permeation using fluorimetric analysis. Lucifer yellow permeation is high if monolayers have been damaged."}, "RSV-A5 (6440)": {"tested_on": "RSV-A5 (6440)", "assay": "RSV plaque reduction assay, RSV-A5 (6440), Vero cells", "assay_type": "cell-based", "settings": "human respiratory syncytial virus, n = 1", "experimental": "as §5"}, "[3]": {"assay": "Liver microsomal stability, dog", "assay_type": "in vitro ADME", "settings": "male, Beagle, pooled liver microsomes, pH 7.4, Comparative Example 2, read-out: Liver Microsomal Stability T1/2, dog (Table 5)", "experimental": "Microsomal Incubation: Experimental Procedure\nPooled human liver microsomes (pooled male and female), pooled rat liver microsomes (male Sprague Dawley rats) and pooled dog liver microsomes (male Beagle dog) are purchased from a reputable commercial supplier and stored at −80° C. prior to use.\nMicrosomes (final protein concentration 0.5 mg/mL), 0.1 M phosphate buffer pH 7.4 and test compound (final substrate concentration 3 μM; final DMSO concentration 0.25%) are pre-incubated at 37° C. prior to the addition of NADPH (final concentration 1 mM) to initiate the reaction. The final incubation volume is 50 μL. A control incubation is included for each compound tested where 0.1 M phosphate buffer pH 7.4 is added instead of NADPH (minus NADPH). Two control compounds are included with each species. All incubations are performed singularly for each test compound.\nCompounds are incubated for 0, 5, 15, 30 and 45 min. The control (minus NADPH) is incubated for 45 min only. The reactions are stopped by transferring 25 μL of incubate to 50 μL methanol at the appropriate time points. The termination plates are centrifuged at 2,500 rpm for 20 min at 4° C. to precipitate the protein. Following protein precipitation, the sample supernatants are combined in cassettes of up to 4 compounds, internal standard is added and samples analysed by LC-MS/MS. From a plot of ln peak area ratio (compound peak area/internal standard peak area) against time, the gradient of the line is determined. Subsequently, half-life and intrinsic clearance are calculated"}}, "note": "Read-outs that look alike come from different tables or passages of the source.", "data": [{"smiles": "NCc1ccc2c(c1)nc(CN1C(=O)C3(CC3)c3ccc(F)cc31)n2CCCC(F)(F)F", "note": "[Example 1, 1′-{[5-(Aminomethyl)-1-(4,4,4-trifluorobutyl)-1H-1,3-benzodiazol-2-yl]methyl}-6′-fluoro-1′,2′-dihydrospiro[cyclopropane-1,3′-indole]-2′-one]", "values": [{"measurement": "fraction unbound at 5 μM", "setting": "[1]; pH 7.4, 5 μM, read-out: PPB fraction unbound, rat", "result": 0.52}, {"measurement": "IC50", "setting": "RSV-A5 (6470)", "result": 10.3, "unit": "nM"}, {"measurement": "IC90", "setting": "RSV-A5 (6470)", "result": 81, "unit": "nM"}, {"measurement": "fraction unbound at 5 μM", "setting": "[2]; pH 7.4, 5 μM, read-out: PPB fraction unbound, dog", "result": 0.27}, {"measurement": "Papp A→B at 60 min, 10 μM", "setting": "human P-gp (MDR1); A-B, 10 μM, 60 min, read-out: Permeability (Human Pgp transfected) MDCK Papp A-B", "result": 0.5, "unit": "×10⁻⁶ cm/s"}, {"measurement": "Papp B→A at 60 min, 10 μM", "setting": "human P-gp (MDR1); B-A, 10 μM, 60 min, read-out: Permeability (Human Pgp transfected) MDCK Papp B-A", "result": 73, "unit": "×10⁻⁶ cm/s"}, {"measurement": "IC50", "setting": "RSV-A5 (6440)", "result": 5.7, "unit": "nM"}, {"measurement": "IC90", "setting": "RSV-A5 (6440)", "result": 106, "unit": "nM"}]}, {"smiles": "CC(C)CCn1c(CN2C(=O)C3(CC3)c3ccccc32)nc2cc(CN)ccc21", "note": "[RV039, 1′-((5-(aminomethyl)-1-isopentyl-1H-benzo[d]imidazol-2-yl)methyl)spiro[cyclopropane-1,3′-indolin]-2′-one, reference compound]", "values": [{"measurement": "fraction unbound at 5 μM", "setting": "[1]; pH 7.4, Comparative Example 2, read-out: PPB fraction unbound, rat (Table 5)", "result": 0.1}, {"measurement": "fraction unbound at 5 μM", "setting": "[2]; pH 7.4, Comparative Example 2, read-out: PPB fraction unbound, dog (Table 5)", "result": 0.1}, {"measurement": "Papp A→B at 60 min, 10 μM", "setting": "human P-gp (MDR1)", "result": 0.42, "unit": "×10⁻⁶ cm/s"}, {"measurement": "Papp B→A at 60 min, 10 μM", "setting": "human P-gp (MDR1)", "result": 49, "unit": "×10⁻⁶ cm/s"}, {"measurement": "half-life at 3 μM", "setting": "[3]", "result": "> 1.67", "unit": "h"}]}]}
